From paper PMC3904387 (ACS medicinal chemistry letters, 2013)

Tests used:
[1] = test system: Madin-Darby canine kidney (MDCK) cells
[2] = test system: PR8 H1N1 infected MDCK cells; type: cell-based

SMILES	cytotoxicity (in words) [1]	antiviral activity (in words) [2]
O=C(N/N=C\c1cccc(Cl)c1Cl)c1ccc(O)c(O)c1 [compound 6]	cytotoxic	
Cc1ccccc1/C=N\NC(=O)c1ccc(O)c(O)c1 [compound 7]	lacking cytotoxicity	lacking cytotoxicity and antiviral activity
COc1ccccc1N1CCN(/N=C/c2ccc(O)c(O)c2)CC1 [compound 8]	cytotoxic	
C/C(=N/NC(=O)c1ccc(O)c(O)c1)c1ccc(C)cc1 [compound 9]	lacks antiviral activity and cytotoxicity	lacks antiviral activity
O=C1CC2(CCCCC2)Oc2c1ccc(O)c2O [compound 11]	lack cytotoxicity	lack cytotoxicity and antiviral activity
CC(=O)N1CCC2(CC1)CC(=O)c1ccc(O)c(O)c1O2 [compound 12]	lack cytotoxicity	lack cytotoxicity and antiviral activity
O=C(Cc1ccccc1Cl)c1ccc(O)c(O)c1O [compound 14]	neither cytotoxic	neither cytotoxic nor active against virally infected cells
